From PubChem BioAssay (NCI)
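Each compound was tested at five concentrations against cells in 96-well plates for 48 hours. At the TGI there is no net growth.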

Tests used:
Assay in all cases: NCI anticancer screen, dose series, 48 h
IGROV1 ovarian = tested on: IGROV1 ovarian
UACC-257 melanoma = tested on: UACC-257 melanoma
SN12C renal = tested on: SN12C renal
NCI/ADR-RES ovarian = tested on: NCI/ADR-RES ovarian
SNB-19 CNS = tested on: SNB-19 CNS
SW-620 colon = tested on: SW-620 colon
SK-MEL-28 melanoma = tested on: SK-MEL-28 melanoma
HCT-116 colon = tested on: HCT-116 colon
SNB-75 CNS = tested on: SNB-75 CNS
SK-OV-3 ovarian = tested on: SK-OV-3 ovarian
EKVX NSCLC = tested on: EKVX NSCLC
MALME-3M melanoma = tested on: MALME-3M melanoma
M14 melanoma = tested on: M14 melanoma
HT29 colon = tested on: HT29 colon
HCC-2998 colon = tested on: HCC-2998 colon
HS 578T breast = tested on: HS 578T breast
SK-MEL-2 melanoma = tested on: SK-MEL-2 melanoma
RXF 393 renal = tested on: RXF 393 renal
A549 NSCLC = tested on: A549 NSCLC
SF-539 CNS = tested on: SF-539 CNS
SF-295 CNS = tested on: SF-295 CNS
A498 renal = tested on: A498 renal
KM12 colon = tested on: KM12 colon
HOP-92 NSCLC = tested on: HOP-92 NSCLC
MCF7 breast = tested on: MCF7 breast
MDA-MB-231 breast = tested on: MDA-MB-231 breast
PC-3 prostate = tested on: PC-3 prostate
SK-MEL-5 melanoma = tested on: SK-MEL-5 melanoma
786-0 renal = tested on: 786-0 renal
SR leukemia = tested on: SR leukemia
MOLT-4 leukemia = tested on: MOLT-4 leukemia
NCI-H460 lung = tested on: NCI-H460 lung
BT-549 breast = tested on: BT-549 breast
SF-268 CNS = tested on: SF-268 CNS
NCI-H226 lung = tested on: NCI-H226 lung
CAKI-1 renal = tested on: CAKI-1 renal
OVCAR-5 ovarian = tested on: OVCAR-5 ovarian
UO-31 renal = tested on: UO-31 renal
OVCAR-4 ovarian = tested on: OVCAR-4 ovarian
NCI-H522 lung = tested on: NCI-H522 lung
TK-10 renal = tested on: TK-10 renal
U251 CNS = tested on: U251 CNS
K-562 leukemia = tested on: K-562 leukemia
MDA-N = tested on: MDA-N
HOP-62 NSCLC = tested on: HOP-62 NSCLC
NCI-H23 lung = tested on: NCI-H23 lung
OVCAR-8 ovarian = tested on: OVCAR-8 ovarian
COLO 205 colon = tested on: COLO 205 colon
DU-145 prostate = tested on: DU-145 prostate
T-47D breast = tested on: T-47D breast
OVCAR-3 ovarian = tested on: OVCAR-3 ovarian
MDA-MB-435 = tested on: MDA-MB-435
LOX IMVI melanoma = tested on: LOX IMVI melanoma
HL-60(TB) leukemia = tested on: HL-60(TB) leukemia
CCRF-CEM leukemia = tested on: CCRF-CEM leukemia
UACC-62 melanoma = tested on: UACC-62 melanoma
HCT-15 colon = tested on: HCT-15 colon
ACHN renal = tested on: ACHN renal
RPMI-8226 leukemia = tested on: RPMI-8226 leukemia

Molecule `Cc1[nH]c(=O)nc2nc3ccc(Cl)cc3c(NC(C)(CO)CO)c12` has a TGI (IGROV1 ovarian) of over 100 µM, a TGI (UACC-257 melanoma) of over 100 µM and a TGI (SN12C renal) of over 100 µM. For the same molecule, the TGI (NCI/ADR-RES ovarian) was over 100 µM, the TGI (SNB-19 CNS) was over 95.3 µM and the TGI (SW-620 colon) was over 100 µM. For the same molecule, the TGI (SK-MEL-28 melanoma) was over 100 µM, the TGI (HCT-116 colon) was over 100 µM and the TGI (SNB-75 CNS) was over 96.5 µM. For the same molecule, the TGI (SK-OV-3 ovarian) was over 100 µM, the TGI (EKVX NSCLC) was over 100 µM and the TGI (MALME-3M melanoma) was over 100 µM. It also gave a TGI (M14 melanoma) of over 100 µM, a TGI (HT29 colon) of over 100 µM and a TGI (HCC-2998 colon) of over 100 µM. It also gave a TGI (HS 578T breast) of over 100 µM, a TGI (SK-MEL-2 melanoma) of over 100 µM and a TGI (RXF 393 renal) of 88.8 µM. It also gave a TGI (A549 NSCLC) of over 100 µM, a TGI (SF-539 CNS) of over 100 µM and a TGI (SF-295 CNS) of over 100 µM. The TGI (A498 renal) was over 100 µM, the TGI (KM12 colon) was over 100 µM and the TGI (HOP-92 NSCLC) was over 100 µM. It also gave a TGI (MCF7 breast) of over 100 µM, a TGI (MDA-MB-231 breast) of over 81 µM and a TGI (PC-3 prostate) of over 100 µM. It also gave a TGI (SK-MEL-5 melanoma) of over 100 µM, a TGI (786-0 renal) of over 100 µM and a TGI (SR leukemia) of over 100 µM. The TGI (MOLT-4 leukemia) was over 100 µM, the TGI (NCI-H460 lung) was over 100 µM and the TGI (BT-549 breast) was over 100 µM. The TGI (SF-268 CNS) was over 100 µM, the TGI (NCI-H226 lung) was over 100 µM and the TGI (CAKI-1 renal) was over 100 µM. It also gave a TGI (OVCAR-5 ovarian) of over 100 µM, a TGI (UO-31 renal) of 10.4 µM and a TGI (OVCAR-4 ovarian) of over 100 µM. For the same molecule, the TGI (NCI-H522 lung) was over 67.9 µM, the TGI (TK-10 renal) was over 100 µM and the TGI (U251 CNS) was over 100 µM. It also gave a TGI (K-562 leukemia) of over 100 µM, a TGI (MDA-N) of over 100 µM and a TGI (HOP-62 NSCLC) of 61.3 µM. The TGI (NCI-H23 lung) was over 100 µM, the TGI (OVCAR-8 ovarian) was over 100 µM and the TGI (COLO 205 colon) was over 100 µM. The TGI (DU-145 prostate) was over 100 µM, the TGI (T-47D breast) was over 100 µM and the TGI (OVCAR-3 ovarian) was over 100 µM. It also gave a TGI (MDA-MB-435) of over 100 µM, a TGI (LOX IMVI melanoma) of over 100 µM and a TGI (HL-60(TB) leukemia) of over 100 µM. For the same molecule, the TGI (CCRF-CEM leukemia) was over 100 µM, the TGI (UACC-62 melanoma) was over 100 µM and the TGI (HCT-15 colon) was over 100 µM. It also gave a TGI (ACHN renal) of over 100 µM and a TGI (RPMI-8226 leukemia) of over 100 µM.

With `S=c1nc2sc3c(c2c(Nc2ccc(Br)cc2)[nH]1)CCN(N1CCc2c(sc4nc(=S)[nH]c(Nc5ccc(Br)cc5)c24)C1)C3` the TGI (IGROV1 ovarian) was over 50 µM, the TGI (UACC-257 melanoma) was over 50 µM and the TGI (SN12C renal) was over 50 µM. For the same molecule, the TGI (NCI/ADR-RES ovarian) was over 50 µM, the TGI (SNB-19 CNS) was over 50 µM and the TGI (SW-620 colon) was over 50 µM. For the same molecule, the TGI (SK-MEL-28 melanoma) was 31 µM, the TGI (HCT-116 colon) was over 50 µM and the TGI (SNB-75 CNS) was over 50 µM. The TGI (SK-OV-3 ovarian) was over 50 µM, the TGI (EKVX NSCLC) was over 50 µM and the TGI (MALME-3M melanoma) was over 50 µM. The TGI (M14 melanoma) was 17.1 µM, the TGI (HT29 colon) was over 50 µM and the TGI (HCC-2998 colon) was over 50 µM. It also gave a TGI (HS 578T breast) of over 50 µM, a TGI (SK-MEL-2 melanoma) of over 50 µM and a TGI (RXF 393 renal) of 42.5 µM. It also gave a TGI (A549 NSCLC) of over 50 µM, a TGI (SF-539 CNS) of over 50 µM and a TGI (SF-295 CNS) of over 50 µM. It also gave a TGI (A498 renal) of 31.3 µM, a TGI (KM12 colon) of over 50 µM and a TGI (MCF7 breast) of over 50 µM. It also gave a TGI (MDA-MB-231 breast) of over 50 µM, a TGI (PC-3 prostate) of over 50 µM and a TGI (SK-MEL-5 melanoma) of over 50 µM. For the same molecule, the TGI (786-0 renal) was 15.5 µM, the TGI (SR leukemia) was over 50 µM and the TGI (MOLT-4 leukemia) was over 50 µM. The TGI (NCI-H460 lung) was over 50 µM, the TGI (BT-549 breast) was over 50 µM and the TGI (SF-268 CNS) was over 50 µM. The TGI (NCI-H226 lung) was over 50 µM, the TGI (CAKI-1 renal) was over 50 µM and the TGI (OVCAR-5 ovarian) was over 50 µM. The TGI (UO-31 renal) was over 50 µM, the TGI (OVCAR-4 ovarian) was over 50 µM and the TGI (NCI-H522 lung) was 44.5 µM. For the same molecule, the TGI (TK-10 renal) was over 50 µM, the TGI (U251 CNS) was 19 µM and the TGI (K-562 leukemia) was over 50 µM. For the same molecule, the TGI (MDA-N) was 44.2 µM, the TGI (HOP-62 NSCLC) was over 50 µM and the TGI (NCI-H23 lung) was over 50 µM. It also gave a TGI (OVCAR-8 ovarian) of over 50 µM, a TGI (COLO 205 colon) of over 50 µM and a TGI (DU-145 prostate) of over 50 µM. For the same molecule, the TGI (T-47D breast) was over 50 µM, the TGI (OVCAR-3 ovarian) was over 50 µM and the TGI (MDA-MB-435) was over 50 µM. The TGI (LOX IMVI melanoma) was 24.9 µM, the TGI (HL-60(TB) leukemia) was over 50 µM and the TGI (CCRF-CEM leukemia) was over 50 µM. For the same molecule, the TGI (UACC-62 melanoma) was over 50 µM, the TGI (HCT-15 colon) was over 50 µM and the TGI (ACHN renal) was over 50 µM. The TGI (RPMI-8226 leukemia) was over 50 µM.
